Test system: IL-8
Test: Expression of IL-8 by epidermal human skin model (EST-1000) after IL-1alpha stimulation
Assay type: cell-based
Details: Table 7, 2 wt.-% in vehicle
Experimental: The Expression of IL-8 by epidermal human skin model after IL-1alpha stimulation has been assessed using 3D-Reconstituted Epidermis Models (EST-1000) (Cellsystems GmbH, St. Katharinen, Germany). The EST-1000 samples were equilibrated over night at 37° C. in a 5% CO^2 atmosphere according to manufacturer's instructions. Then, the EST-1000 samples were stimulated by addition of 10 ng/ml IL-1alpha (Peprotech, UK) to the culture medium.
Afterwards, one sample was treated with the vehicle (i.e. squalane, e.g. commercially available under the tradename Fitoderm®), whereas the other sample was treated with a mixture consisting of the vehicle comprising 2 wt.-% of the mixture of example 1 by topical addition to the tissue samples. At distinct time points, 200 ul medium samples were taken and frozen for further analysis. As can be retrieved from the results presented in table, the expression of the pro-inflammatory cytokine IL-8 by the epidermal human skin model (EST-1000) is suppressed by the addition of the composition according to example 1 in a dose dependent manner.
Furthermore, the expression of IL-8 by epidermal human skin model after IL-1alpha stimulation was assessed as outlined above using the single compounds CLA, Syn Coll®, spent grain wax as well as mixtures thereof.

With Conjugated linoleic acid [CLA] the “Expression of cytokine IL-8, T = 24 h” value (T = 24 h) was 8161, the “Expression of cytokine IL-8, t = 0 h” value (t = 0 h) was 61 and the “Expression of cytokine IL-8, t = 2 h” value (t = 2 h) was 2536. For the same substance, the “Expression of cytokine IL-8, t = 4 h” value (t = 4 h) was 5056 and the “Expression of cytokine IL-8, t = 8 h” value (t = 8 h) was 5805.
